Measurements taken from patent publication US5646261A, “3'-derivatized oligonucleotide analogs with non-nucleotidic groupings, their preparation and use” (Hoechst Aktiengesellschaft, priority 1992, dated 1997).
{Psoralen} = psoralen conjugate attached via phosphate

Legend:
HSV-1 = test: Inhibition of HSV-1 viral replication in cell culture; assay type: cell-based, herpes simplex virus type 1
[1] = tested on: E1b (SP1 binding region of adenovirus E1b); test: Inhibition of transcription of E1b; details: as sense oligonucleotide, simulates the SP1 binding region

With “"psoralen"-pGpGpTpGpTpTpTpGpGpGpGpGpTpTpGpG(5'5'S)GpTpTpGpGpGpGpT2pTpGpTpGpTpGp-"psoralen") (chain 1 NGTTGGGGGTTTGTGN; chain 2 NTTGGGGTTGTGTN; 3' {Psoralen}, sugars by position, backbone and the base at N not given here; two pieces joined 5'-5' through S linker) [IA-4, oligonucleotide modified with psoralen at both 3'-ends]” the “inhibition of HSV-1 replication by triplex formation” value (HSV-1; target: origin of replication (oriL) of the HSV-1 genome) was “inhibits replication of the latter by triplex formation”.
With “d(p-Nitrophenylethyl-2-oxy-pC(5'5'p)GpTpCpCpApTpGpTpCpGpGpCpApApApCpApGpCpTp-O-i-C3 H7) (DNA NNTCCATGTCGGCAAACAGCN; chemistry not fully specified) [IA-2]” the “inhibition of HSV-1 replication” value (HSV-1; cell culture, sequence I directed against mRNA of transactivator protein Vmw65, sequences II and III against splice-acceptor region of IE4/5 precursor mRNA) was “inhibit HSV-1 replication”.
For “d(GpGpGpCpGpGpGpGpCpTpTpApApApGpG(3'5'S)CpCpTpTpTpApApGpCpCpCpCpGpCpCpCp-O- -(CH2 CH2 O)8 (CH2)13 CH3) (DNA GGGCGGGGCTTAAAGNNCTTTAAGCCCCGCCN; chemistry not fully specified) [IB-2, 3'-modified oligonucleotide analog with a 3'5'-spacer]”, the “inhibition of transcription of E1b” value [1] was “inhibits the transcription of E1b”.
